According to ChEMBL document CHEMBL5550116, “Discovery of novel macrocyclic derivatives as potent and selective cyclin-dependent kinase 2 inhibitors” (Bioorg Med Chem, 2024):

biological target: Cyclin-dependent kinase 2/cyclin E1 (Homo sapiens, UniProt P24941); assay: Inhibition of full length N-terminal GST-tagged human CDK2 (1 to 298 residues)/cyclin E1 (1 to 410 residues) expressed in Sf21 cells using histone H1 as substrate preincubated for 10 mins followed by substrate and ATP addition and measured after 60 mins by ADP-Glo reagent based microplate reader assay

SMILES	Ki [nM]
CC(C)c1cnn2c3nc(nc12)N(C1CNC1)CCCCCOc1ccccc1CN3	158
CC(C)c1cnn2c3nc(nc12)N(CC1CCNCC1)CCCCCOc1ccc(C(F)(F)F)cc1CN3	92.3
CC(C)c1cnn2c3nc(nc12)N(CC1CNC1)CCCCCOc1ccc(C(F)(F)F)cc1CN3	> 1000
CC(C)c1cnn2c3nc(nc12)N(CC1CCNCC1)CCCCCOc1ccc(S(C)(=O)=O)cc1CN3	83.2
CC(C)c1cnn2c3nc(nc12)N(CC1CNC1)CCCCCOc1ccc(C#N)cc1CN3	> 1000
CC(C)c1cnn2c3nc(nc12)N(CC1CCNCC1)CCCCCOc1cc(F)c(F)cc1CN3	2.9
CC(C)c1cnn2c3nc(nc12)N(CC1CNC1)CCCCCOc1cc(C#N)ccc1CN3	35.8
CC(C)c1cnn2c3nc(nc12)N(CCC1CNC1)CCCCCOc1cc(S(C)(=O)=O)ccc1CN3	35.3
CC(C)c1cnn2c3nc(nc12)N(CC1CNC1)CCCCCOc1cc(C(F)(F)F)ccc1CN3	15.4

Other lines, results leading:

Ki [nM]	SMILES
3.1	CC(C)c1cnn2c3nc(nc12)N(CC1CCNCC1)CCCCCOc1ccc(F)cc1CN3
49.6	CC(C)c1cnn2c3nc(nc12)N(CC(C)(C)CN)CCCCCOc1ccccc1CN3
426	CC(C)c1cnn2c3nc(nc12)N(CC1CCOCC1)CCCCCOc1ccccc1CN3
46.1	CC(C)c1cnn2c3nc(nc12)N(CC1CCCNC1)CCCCCOc1ccccc1CN3 (configuration not stated)

biological target: Cyclin-dependent kinase 5/CDK5 activator 1 (Homo sapiens, UniProt Q00535); assay: Inhibition of human CDK5/p25NCK using histone H1 as substrate preincubated for 10 mins followed by substrate and ATP addition and measured after 60 mins by ADP-Glo reagent based microplate reader assay; type: protein-complex assay
Sequence (Q00535 whole entry): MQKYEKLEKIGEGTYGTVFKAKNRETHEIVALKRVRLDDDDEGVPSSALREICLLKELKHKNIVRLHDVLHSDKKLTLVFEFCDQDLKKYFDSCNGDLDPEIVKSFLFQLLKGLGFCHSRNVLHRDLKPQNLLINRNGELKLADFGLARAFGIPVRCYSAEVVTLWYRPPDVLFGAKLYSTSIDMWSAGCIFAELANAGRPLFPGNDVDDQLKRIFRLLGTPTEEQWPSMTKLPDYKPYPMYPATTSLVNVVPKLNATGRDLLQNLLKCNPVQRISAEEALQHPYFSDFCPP
Sequence (Q15078 whole entry, further chain): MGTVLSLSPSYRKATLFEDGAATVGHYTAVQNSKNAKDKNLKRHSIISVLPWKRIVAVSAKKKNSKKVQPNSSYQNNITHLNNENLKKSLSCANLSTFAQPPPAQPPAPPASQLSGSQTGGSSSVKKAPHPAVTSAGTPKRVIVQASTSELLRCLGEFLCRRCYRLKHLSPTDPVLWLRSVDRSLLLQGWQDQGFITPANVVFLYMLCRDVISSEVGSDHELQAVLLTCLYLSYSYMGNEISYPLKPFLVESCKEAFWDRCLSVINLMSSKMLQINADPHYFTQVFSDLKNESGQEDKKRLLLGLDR

Ki [nM]	SMILES
2.5	CC(C)c1cnn2c3nc(nc12)N(CC1CCNCC1)CCCCCOc1ccc(F)cc1CN3
60.3	CC(C)c1cnn2c3nc(nc12)N(CC(C)(C)CN)CCCCCOc1ccccc1CN3
4.4	CC(C)c1cnn2c3nc(nc12)N(CC1CCNCC1)CCCCCOc1cc(F)c(F)cc1CN3
140	CC(C)c1cnn2c3nc(nc12)N(CC1CCCNC1)CCCCCOc1ccccc1CN3 (configuration not stated)
